The text below walks through data of ChEMBL document CHEMBL1201862, “PubChem BioAssay data set” (2004).

Each structure is given as a SMILES string.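 1) Cells in 96-well plates. 2) Compound, 48 h, 5 concentrations. 3) Linear interpolation between surrounding doses. 4) Unreached endpoint = highest concentration. The concentration for 50% growth inhibition is given as GI50.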 Active and inactive are the calls of the source. Cut-off read from the data, not from the text of the source: active = GI50 up to about 1.1 µM and inactive = higher.

Among the test systems are KM-20L2; OVCAR-8; HCC 2998; UACC-62; DLD-1; OVCAR-3; OVCAR-5; UO-31; SK-MEL-28; Malme-3M; U-251; RPMI-8226; UACC-257; XF498; SF-539; ACHN; M14; Hs-578T; BT-549; MDA-MB-231.
What all share (test): NCI anticancer screen, dose series, 48 h

As to `CC1=C(O)C(=O)[C@@H]2O[C@@H]2C1=O`, the GI50 is 17.2 µM (inactive) with KM-20L2; 4.79 µM (inactive) in the experiment with OVCAR-8; 15.2 µM (inactive) in the experiment with HCC 2998; 8.49 µM (inactive) with UACC-62; 7.28 µM (inactive) in the experiment with DLD-1; 6.5 µM (inactive) in the experiment on OVCAR-3. For the same compound, the GI50 with OVCAR-5 is 16.3 µM (inactive); in the experiment with UO-31, 22.3 µM (inactive); in the experiment with SK-MEL-28 it was 5.98 µM (inactive); in the experiment with Malme-3M, 6.14 µM (inactive); in the experiment on U-251, 19.4 µM (inactive); in the experiment with RPMI-8226 it was 3.46 µM (inactive). Besides, the GI50 in the experiment with UACC-257 is 11.1 µM (inactive); in the experiment with XF498, 10.4 µM (inactive); in the experiment with SF-539 it was 15.9 µM (inactive).

As for `COc1cc2c(cc1OC)C(Cl)C(c1ccc(Cl)cc1)=C2Cl` (stereo not given), the GI50 was 18.1 µM (inactive) with KM-20L2; 15.2 µM (inactive) with ACHN; 19.3 µM (inactive) in the experiment with OVCAR-8; 15.4 µM (inactive) in the experiment with M14; 12.5 µM (inactive) with UACC-62; 16.3 µM (inactive) in the experiment on DLD-1. The GI50 in the experiment on OVCAR-3 was 16.5 µM (inactive); with UO-31, 16.8 µM (inactive); in the experiment with SK-MEL-28, 19.1 µM (inactive); in the experiment on Malme-3M it was 22 µM (inactive); in the experiment with U-251, 13.7 µM (inactive); in the experiment with RPMI-8226, 9.02 µM (inactive). The GI50 with XF498 was 3.45 µM (inactive); in the experiment on SF-539, 17.1 µM (inactive).

Regarding `CC(=O)c1ccc(NC(=O)C(=O)C(C#N)CC(C)(C)C=O)cc1` (stereo not given), the GI50 with KM-20L2, with ACHN, with OVCAR-8, with HCC 2998, in the experiment on M14 and in the experiment with UACC-62 was > 100 µM (inactive) each time. The GI50 with OVCAR-3, in the experiment on OVCAR-5, in the experiment with UO-31, in the experiment with SK-MEL-28, with Malme-3M and in the experiment with U-251 was > 100 µM (inactive) each time. Also, the GI50 in the experiment with RPMI-8226, in the experiment with UACC-257, with XF498 and in the experiment on SF-539 was > 100 µM (inactive) in each case.

Turning to `O=P1(Oc2ccc(Cl)cc2Cl)Oc2cc3ccccc3cc2O1`, the GI50 is > 100 µM (inactive) in the experiment on KM-20L2; 69 µM (inactive) in the experiment with OVCAR-8; 20.8 µM (inactive) in the experiment on HCC 2998; 43.7 µM (inactive) with UACC-62; 56.8 µM (inactive) with DLD-1; 28.4 µM (inactive) in the experiment on OVCAR-3. The GI50 in the experiment with OVCAR-5 was > 100 µM (inactive); with UO-31 it was 24.9 µM (inactive); with SK-MEL-28 it was > 100 µM (inactive); with Malme-3M it was > 100 µM (inactive); with U-251, 81.7 µM (inactive); in the experiment with RPMI-8226 it was 18.8 µM (inactive). Further, the GI50 in the experiment on UACC-257 was > 100 µM (inactive); in the experiment on XF498 it was 33.1 µM (inactive); in the experiment on SF-539, > 84.9 µM (inactive).

As for `C[n+]1ccn2c3nc4ccccc4nc3c([O-])c(C#N)c21`, the GI50 in the experiment with ACHN was > 100 µM (inactive); in the experiment on Hs-578T it was > 100 µM (inactive); in the experiment with OVCAR-8 it was > 56.6 µM (inactive); in the experiment on BT-549 it was > 100 µM (inactive); with HCC 2998, > 10 µM (inactive); with M14 it was > 100 µM (inactive). Besides, the GI50 is > 100 µM (inactive) with UACC-62; < 0.01 µM (active) in the experiment on DLD-1; > 100 µM (inactive) with OVCAR-3; > 10 µM (inactive) with OVCAR-5; > 100 µM (inactive) with UO-31; > 100 µM (inactive) with SK-MEL-28. In addition, the GI50 in the experiment with Malme-3M, in the experiment on U-251, in the experiment on RPMI-8226, in the experiment with UACC-257, with XF498 and with SF-539 was > 100 µM (inactive) each time. The GI50 in the experiment with MDA-MB-231 is > 100 µM (inactive).

`C=C1CC(OC)(C(O)C(=O)N[C@H]2OCO[C@H]3C2O[C@H](C[C@H](O)COC)C(C)(C)C3OC)O[C@H](C)[C@@H]1C` (stereo not given in full): the GI50 with KM-20L2, in the experiment with OVCAR-8, in the experiment on HCC 2998, in the experiment on UACC-62, in the experiment with DLD-1 and in the experiment with OVCAR-3 was < 0.00773 µM (active) in each case. Moreover, the GI50 in the experiment on OVCAR-5, in the experiment with UO-31, in the experiment with SK-MEL-28, with U-251, in the experiment with RPMI-8226 and in the experiment on UACC-257 was < 0.00773 µM (active) in each case. The GI50 in the experiment on XF498 and in the experiment with SF-539 was < 0.00773 µM (active) throughout.

Take `Cc1cc(NS(=O)(=O)c2ccc(NC(=O)c3cccc4cc5ccccc5nc34)cc2)no1`: the GI50 in the experiment on KM-20L2 was 27.7 µM (inactive); with ACHN, 11.1 µM (inactive); in the experiment on OVCAR-8, 16.6 µM (inactive); with M14 it was 23.5 µM (inactive); in the experiment with UACC-62, 13.8 µM (inactive); in the experiment on DLD-1, 19.9 µM (inactive). Also, the GI50 with OVCAR-3 is 22.3 µM (inactive); with OVCAR-5 it was 23.2 µM (inactive); in the experiment with UO-31, 6.87 µM (inactive); in the experiment with SK-MEL-28 it was 8.36 µM (inactive); with Malme-3M, 14.8 µM (inactive); in the experiment on U-251, 12.5 µM (inactive). The GI50 was 16.1 µM (inactive) in the experiment on RPMI-8226, 27.4 µM (inactive) with UACC-257, 17 µM (inactive) in the experiment on XF498 and 11.6 µM (inactive) in the experiment on SF-539.

As to `C=C(C(=C)P(=S)(c1ccccc1)c1ccccc1)P(=S)(c1ccccc1)c1ccccc1`, the GI50 in the experiment with KM-20L2, with ACHN, in the experiment on OVCAR-8, in the experiment on HCC 2998, with M14 and in the experiment with UACC-62 was > 100 µM (inactive) throughout. Also, the GI50 with OVCAR-3 was > 100 µM (inactive); in the experiment with OVCAR-5 it was > 100 µM (inactive); in the experiment on SK-MEL-28, > 100 µM (inactive); with Malme-3M, 74.8 µM (inactive); with U-251, > 100 µM (inactive); in the experiment with RPMI-8226, 8.75 µM (inactive). The GI50 in the experiment on UACC-257 is > 100 µM (inactive); with XF498, 73.6 µM (inactive); with SF-539, > 100 µM (inactive).

Consider `CC(O)/C=C/C(CCC(C)CO)C(C)C` (stereo not given), for which the GI50 with ACHN, in the experiment with OVCAR-8, in the experiment on HCC 2998, in the experiment with M14, in the experiment on UACC-62 and with DLD-1 was > 100 µM (inactive) each time. Further, the GI50 in the experiment on OVCAR-3, in the experiment on OVCAR-5, in the experiment with UO-31, in the experiment with SK-MEL-28, in the experiment with Malme-3M and in the experiment with U-251 was > 100 µM (inactive) throughout. Besides, the GI50 in the experiment with RPMI-8226, in the experiment on UACC-257, in the experiment with XF498 and in the experiment on SF-539 was > 100 µM (inactive) throughout.

Regarding `COC(c1cccc(C(O)(C(F)(F)F)C(F)(F)F)c1)(C(F)(F)F)C(F)(F)F`, the GI50 is 16.9 µM (inactive) with KM-20L2; 15.8 µM (inactive) in the experiment on ACHN; 24.6 µM (inactive) in the experiment on OVCAR-8; 8.79 µM (inactive) with HCC 2998; 18.7 µM (inactive) with M14; 14.3 µM (inactive) with UACC-62. Besides, the GI50 with DLD-1 is 20.3 µM (inactive); in the experiment with OVCAR-3, 23.4 µM (inactive); with OVCAR-5 it was 18.4 µM (inactive); in the experiment with UO-31, 19.9 µM (inactive); with SK-MEL-28 it was > 10 µM (inactive); with Malme-3M, 19.4 µM (inactive). The GI50 was 18.3 µM (inactive) with U-251, 27.1 µM (inactive) with UACC-257, 15 µM (inactive) with XF498 and 19.2 µM (inactive) with SF-539.

As to `COc1cccc(NC(=O)CC(=O)n2nc(C)c(/N=N/c3ccccc3)c2C)c1`, the GI50 with ACHN is > 100 µM (inactive); with OVCAR-8 it was > 100 µM (inactive); in the experiment on HCC 2998, > 100 µM (inactive); with M14, > 100 µM (inactive); in the experiment with UACC-62, 79.1 µM (inactive); in the experiment with DLD-1 it was > 100 µM (inactive). The GI50 with OVCAR-3 is > 100 µM (inactive); in the experiment with UO-31, 65.6 µM (inactive); in the experiment with SK-MEL-28 it was > 100 µM (inactive); in the experiment on Malme-3M, > 100 µM (inactive); in the experiment with U-251, > 100 µM (inactive); in the experiment with RPMI-8226, > 100 µM (inactive). Also, the results for the GI50 in the experiment with UACC-257, in the experiment with XF498 and in the experiment with SF-539 were > 100 µM (inactive), 56.9 µM (inactive) and > 100 µM (inactive), respectively.

In the case of `O=C1c2ccccc2CC1C1(O)C(=O)Nc2c(Cl)cc(Cl)cc21` (stereo not given), the GI50 with KM-20L2 is > 100 µM (inactive); in the experiment with ACHN it was 64 µM (inactive); in the experiment with OVCAR-8 it was 39.4 µM (inactive); in the experiment on HCC 2998 it was > 100 µM (inactive); in the experiment with M14, > 100 µM (inactive); with DLD-1, 53.1 µM (inactive). Further, the GI50 is 53.5 µM (inactive) in the experiment with OVCAR-3; > 100 µM (inactive) with OVCAR-5; 49.8 µM (inactive) in the experiment with UO-31; > 100 µM (inactive) in the experiment on SK-MEL-28; 79.6 µM (inactive) in the experiment on Malme-3M; 54.8 µM (inactive) in the experiment on U-251. For the same compound, the GI50 is 20.8 µM (inactive) in the experiment on RPMI-8226, 27 µM (inactive) in the experiment on UACC-257 and 28.4 µM (inactive) in the experiment with XF498.

Consider `CCCCc1c2c(nc3c1CCCC3=O)CCCC2`, for which the GI50 with KM-20L2 is 20 µM (inactive); in the experiment with ACHN, > 100 µM (inactive); with OVCAR-8, > 100 µM (inactive); in the experiment on HCC 2998, > 100 µM (inactive); in the experiment with M14, > 100 µM (inactive); with OVCAR-3, > 100 µM (inactive). Besides, the GI50 in the experiment with UO-31 was > 100 µM (inactive); in the experiment with SK-MEL-28, > 100 µM (inactive); in the experiment with Malme-3M it was 50.2 µM (inactive); with U-251, > 100 µM (inactive); with RPMI-8226 it was > 100 µM (inactive); in the experiment with UACC-257, > 10 µM (inactive). Further, the GI50 in the experiment with XF498 and in the experiment with SF-539 was > 100 µM (inactive) in each case.
